# Publication PMC4360375 (Journal of Medicinal Chemistry, 2015)
# Test system: other neurotransmitter reuptake systems (dopamine, serotonin, choline, aspartate)
# Assay: not given
# Set-up: method as in PMID 3509068
# Settings: cited from earlier work
row,Molecule,activity on other neurotransmitter reuptake systems
1,liothyronine [27a],without major activity

# Test system: GABA uptake, rat synaptosome
# Assay: not given
# Settings: literature data set; ref 10.1016/S0968-0896(01)00148-1; cited from earlier work
row,Molecule,pIC50
1,"O=C(O)[C@@H]1CCCN(CCO/N=C2\CCCC\C2=C/c2ccccc2)C1 [An_2001/6_26, O(\N=C\1/CCCC/C/1=C\c1ccccc1)CCN1C[C@@H](CCC1)C(O)=O]",5.013
2,"O=C(O)[C@@H]1CCCN(CCO/N=C2\C[C@H](c3ccccc3)c3ccccc32)C1 [An_2001/6_28, O(\N=C\1/C[C@@H](c2c/1cccc2)c1ccccc1)CCN1C[C@@H](CCC1)C(O)=O]",5.852
3,"O=C(O)[C@@H]1CCCN(CCOCCc2ccccc2-c2ccccc2)C1 [An_2001/6_39, O(CCc1ccccc1-c1ccccc1)CCN1C[C@@H](CCC1)C(O)=O]",6.959
4,"CC/C=C(/C=N/OCCN1CCC[C@@H](C(=O)O)C1)c1ccccc1 [An_2001/6_20, O(\N=C\C(=C\CC)\c1ccccc1)CCN1C[C@@H](CCC1)C(O)=O]",6.125

# Same assay, conditions: literature data set; ref 10.1021/jm00064a005; cited from earlier work
row,Molecule,pIC50
1,"Cc1ccsc1/C(=C/CCN1CCC=C(C(=O)O)C1)c1ccc(Cl)cc1Cl [An_1993_37, Clc1cc(Cl)ccc1\C(=C/CCN1CC(=CCC1)C(O)=O)\c1sccc1C]",6.495
2,"O=C(O)C1=CCCN(CCC=C(c2ccccc2)c2ccccc2)C1 [SK&F-100330-A, OC(=O)C=1CN(CCC=1)CC\C=C(\c1ccccc1)/c1ccccc1]",6.699
3,"Cc1ccsc1/C(=C/CCN1CCC[C@H](C(=O)O)C1)c1cccs1 [An_1993_41, s1ccc(C)c1\C(=C\CCN1C[C@H](CCC1)C(O)=O)\c1sccc1]",6.161
4,"Cc1ccc(/C(=C\CCN2CCC[C@@H](C(=O)O)C2)c2sccc2C)c(C)c1 [An_1993_47, s1ccc(C)c1/C(=C/CCN1C[C@@H](CCC1)C(O)=O)/c1ccc(cc1C)C]",6.585
5,"Cn1cccc1/C(=C/CCN1CCC=C(C(=O)O)C1)c1ccccc1 [An_1993_49, OC(=O)C=1CN(CCC=1)CC\C=C(/c1ccccc1)\c1n(ccc1)C]",6.886

# Same assay, conditions: literature data set; ref 10.1021/jm980492e; cited from earlier work
row,Molecule,pIC50
1,O=C(O)[C@@H]1CCCN(CCCCCCCC(=O)N(c2ccccc2)c2ccccc2)C1 [An_1999/4_(R)-16],5.046
2,"O=C(O)[C@@H]1CCCN(CCCCN(c2ccccc2)c2ccccc2)C1 [An_1999/4_(R)-11, OC(=O)[C@@H]1CCCN(C1)CCCCN(c1ccccc1)c1ccccc1]",5.585
3,"Cc1ccccc1/C(=C/COCCN1CCC[C@@H](C(=O)O)C1)c1ccccc1 [An_1999/4_(R)-22, O(CCN1C[C@@H](CCC1)C(O)=O)C\C=C(\c1ccccc1C)/c1ccccc1]",6.62

# Same assay, conditions: literature data set; ref 10.1021/jm981027k; cited from earlier work
row,Molecule,pIC50
1,"O=C(O)[C@@H]1CCCN(CCO/C=C(/c2ccc(F)cc2F)c2cc(F)ccc2F)C1 [An_1999/3_106, Fc1cc(F)ccc1/C(=C/OCCN1C[C@@H](CCC1)C(O)=O)/c1cc(F)ccc1F]",7.301
2,"Cc1ccccc1/C(=N\OCCN1CCC[C@@H](C(=O)O)C1)c1ccccc1F [An_1999/3_89, Fc1ccccc1/C(=N/OCCN1C[C@@H](CCC1)C(O)=O)/c1ccccc1C]",7.398
3,"Cc1ccccc1/C(=N\OCCN1CCC[C@@H](C(=O)O)C1)c1ccccc1Cl [An_1999/3_90, Clc1ccccc1/C(=N/OCCN1C[C@@H](CCC1)C(O)=O)/c1ccccc1C]",6.699
4,"Cc1ccccc1C(=COCCN1CCC[C@@H](C(=O)O)C1)c1ccccc1C [An_1999/3_45, O(\C=C(\c1ccccc1C)/c1ccccc1C)CCN1C[C@@H](CCC1)C(O)=O]",7.699
5,"O=C(O)[C@@H]1CCCN(CCOC=C(c2ccccc2Cl)c2ccccc2Cl)C1 [An_1999/3_109, Clc1ccccc1\C(=C\OCCN1C[C@@H](CCC1)C(O)=O)\c1ccccc1Cl]",7.301
6,"Cc1cc(F)ccc1C(=COCCN1CCC=C(C(=O)O)C1)c1ccc(F)cc1C [An_1999/3_100, Fc1cc(C)c(cc1)\C(=C\OCCN1CC(=CCC1)C(O)=O)\c1ccc(F)cc1C]",7.097
7,"Cc1ccccc1/C(=N\OCCN1CCC[C@H](C(=O)O)C1)c1sccc1C [An_1999/3_83, s1ccc(C)c1/C(=N/OCCN1C[C@H](CCC1)C(O)=O)/c1ccccc1C]",6.886
8,"O=C(O)C1=CCCN(CCOC=C(c2ccccc2Cl)c2ccccc2Cl)C1 [An_1999/3_110, Clc1ccccc1\C(=C\OCCN1CC(=CCC1)C(O)=O)\c1ccccc1Cl]",7.921

# Same assay, conditions: literature data set; ref 10.1021/jm990513k; cited from earlier work
row,Molecule,pIC50
1,"O=C(O)[C@@H]1CCCN(CCOCC=C2c3ccccc3CCc3ccccc32)C1 [An_2001/5_34, O(CCN1C[C@@H](CCC1)C(O)=O)C\C=C/1\c2c(CCc3c\1cccc3)cccc2]",6.114
2,"O=C(O)[C@@H]1CCCN(CCOCCN2c3ccc(Br)cc3CCc3cc(Br)ccc32)C1 [An_2001/5_31, Brc1cc2CCc3cc(Br)ccc3N(c2cc1)CCOCCN1C[C@@H](CCC1)C(O)=O]",5.987
3,"O=C(O)[C@@H]1CCCN(CCOCCC2c3ccccc3CCc3ccccc32)C1 [An_2001/5_37, O(CCC1c2c(CCc3c1cccc3)cccc2)CCN1C[C@@H](CCC1)C(O)=O]",6.252
4,"O=C(O)[C@@H]1CCCN(CCOCCN2c3ccc(F)cc3CCc3cc(F)ccc32)C1 [An_2001/5_30, Fc1cc2CCc3cc(F)ccc3N(c2cc1)CCOCCN1C[C@@H](CCC1)C(O)=O]",6.602
5,"O=C(O)[C@@H]1CCCN(CCON=C2c3cc(Cl)ccc3CCc3ccc(Cl)cc32)C1 [An_2001/5_17, Clc1cc\2c(CCc3c(cc(Cl)cc3)/C/2=N\OCCN2C[C@@H](CCC2)C(O)=O)cc1]",5.259
6,"O=C(O)[C@@H]1CCCN(CCOCCN2c3ccccc3CCc3ccc(Cl)cc32)C1 [An_2001/5_27, Clc1cc2N(c3c(CCc2cc1)cccc3)CCOCCN1C[C@@H](CCC1)C(O)=O]",7.155

# Target: T1, rGAT1 (Rattus norvegicus, UniProt P23978)
# T1 construct: Y prefix of 'YrGAT-1' (own knowledge: yellow fluorescent protein, YFP, fused to rGAT1 in this group's constructs); expressed in transfected cells; host or cells: HEK293
# Assay: [3H]-GABA uptake inhibition assay in HEK293 cells stably expressing rGAT1
# Format: cell-based
# Settings: 100 μM compound
row,Molecule,"effect on [3H]-GABA uptake, in words"
1,bepotastine [compound 25],inactive
2,O=C(CCN1CCCC1C(=O)O)Nc1ccccc1Oc1ccccc1 (centres unmarked) [compound 18],some weak activity
3,"N[C@@H](Cc1cc(I)c(Oc2cc(I)c(O)c(I)c2)c(I)c1)C(=O)O [27b, levothyroxine]","reduced uptake, albeit weaker than 27a"
4,ramipril [compound 26],inactive

# Same assay, conditions: 100 μM compound; listed as bepotastine
row,Molecule,"effect on [3H]-GABA uptake, in words"
1,bepotastine [compound 25],essentially inactive

# Same assay, conditions: 100 μM of the respective compound; n = 3; relative to saline
row,Molecule,% uptake (remaining uptake of [3H]-GABA)
1,bepotastine [compound 25],103.8%
2,ramipril [compound 26],107.7%

# Same assay, conditions: HEK293, 100 μM of the respective compound; n = 3; relative to saline
row,remaining activity at 100 µM,Molecule
1,105%,CCC(CC)OC1C=C(C(=O)O)CC(N)C1NC(C)=O (centres unmarked) [compound 24]
2,79.3%,O=C(CCN1CCCC1C(=O)O)Nc1ccccc1Oc1ccccc1 (centres unmarked) [compound 18]
3,105%,CCN(CCC(=O)O)Cc1nc2c(C)cccc2c(=O)[nH]1 [compound 12]
4,91%,Fc1cc(Br)cc(CN2CCCC(c3nnn[nH]3)C2)c1 (centres unmarked) [compound 19]
5,54.2%,"N[C@@H](Cc1cc(I)c(Oc2cc(I)c(O)c(I)c2)c(I)c1)C(=O)O [27b, levothyroxine]"
6,99%,O=C(O)CN1CCC(CCc2ccccc2C(F)(F)F)CC1 [compound 14]
7,94.7%,O=C(CN1CCC[C@H]1C(=O)O)NC(c1ccc(F)cc1)c1cccs1 (some centres unmarked) [compound 21]
8,127%,"N[C@H](Cc1cc(I)c(Oc2cc(I)c(O)c(I)c2)c(I)c1)C(=O)O [27c, dextrothyroxine]"
9,95.1%,O=C(O)CN1CCCC1Cc1ccccc1Cl (centres unmarked) [compound 16]
10,93.9%,Cc1nn(Cc2ccccc2Cl)c(C)c1CN(C)C(C)C(=O)O (centres unmarked) [compound 20]
11,104%,CC(C(=O)O)N1CCCN(C(=O)c2ccccc2C(F)(F)F)CC1 (centres unmarked) [compound 15]
12,108%,NC(CSCc1cccc2ccccc12)C(=O)O (centres unmarked) [compound 23]
13,93.2%,CC(C(=O)Nc1ccc(Br)cc1Br)N1CCCC(CC(=O)O)C1 (centres unmarked) [compound 13]
14,104%,Cc1cc(S(=O)(=O)N2CCN(CCC(=O)O)CC2)ccc1Br [compound 22]

# Test system: not given
# Assay: not given
# Set-up: method as in PMID 10903390
# Settings: cited from earlier work
row,Molecule,blood-brain barrier penetration
1,"O=C(O)C1=CCCNC1 [compound 3, guvacine]",unable to penetrate the blood–brain barrier
2,"O=C(O)C1CCCNC1 (centres unmarked) [compound 2, nipecotic acid]",unable to penetrate the blood–brain barrier
